The text below walks through data of PubChem BioAssay AID743339 (Broad Institute, 2014).

Structures are written as SMILES. The source made the active and inactive calls.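 The calls were made as follows: active = activation curve crossing 200% at or below the highest valid dose tested for that sample; inconclusive = flat curve with activation between 30 and 70%, or poor fit; inactive = the rest, including signal falling instead of rising.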

In one assay the target is Leucyl-cystinyl aminopeptidase (Mus musculus) (UniProt Q8C129). In words: IRAP activators, dose response, selectivity assay for ERAP1 modulator project, biochemical, Leu-AMC fluorescence, cherry-picked samples (AID 743339). As to conditions: purified IRAP, Leu-AMC cleavage fluorescence, 1 h.
Chain of Leucyl-cystinyl aminopeptidase (Mus musculus) (Q8C129 whole entry, looked up): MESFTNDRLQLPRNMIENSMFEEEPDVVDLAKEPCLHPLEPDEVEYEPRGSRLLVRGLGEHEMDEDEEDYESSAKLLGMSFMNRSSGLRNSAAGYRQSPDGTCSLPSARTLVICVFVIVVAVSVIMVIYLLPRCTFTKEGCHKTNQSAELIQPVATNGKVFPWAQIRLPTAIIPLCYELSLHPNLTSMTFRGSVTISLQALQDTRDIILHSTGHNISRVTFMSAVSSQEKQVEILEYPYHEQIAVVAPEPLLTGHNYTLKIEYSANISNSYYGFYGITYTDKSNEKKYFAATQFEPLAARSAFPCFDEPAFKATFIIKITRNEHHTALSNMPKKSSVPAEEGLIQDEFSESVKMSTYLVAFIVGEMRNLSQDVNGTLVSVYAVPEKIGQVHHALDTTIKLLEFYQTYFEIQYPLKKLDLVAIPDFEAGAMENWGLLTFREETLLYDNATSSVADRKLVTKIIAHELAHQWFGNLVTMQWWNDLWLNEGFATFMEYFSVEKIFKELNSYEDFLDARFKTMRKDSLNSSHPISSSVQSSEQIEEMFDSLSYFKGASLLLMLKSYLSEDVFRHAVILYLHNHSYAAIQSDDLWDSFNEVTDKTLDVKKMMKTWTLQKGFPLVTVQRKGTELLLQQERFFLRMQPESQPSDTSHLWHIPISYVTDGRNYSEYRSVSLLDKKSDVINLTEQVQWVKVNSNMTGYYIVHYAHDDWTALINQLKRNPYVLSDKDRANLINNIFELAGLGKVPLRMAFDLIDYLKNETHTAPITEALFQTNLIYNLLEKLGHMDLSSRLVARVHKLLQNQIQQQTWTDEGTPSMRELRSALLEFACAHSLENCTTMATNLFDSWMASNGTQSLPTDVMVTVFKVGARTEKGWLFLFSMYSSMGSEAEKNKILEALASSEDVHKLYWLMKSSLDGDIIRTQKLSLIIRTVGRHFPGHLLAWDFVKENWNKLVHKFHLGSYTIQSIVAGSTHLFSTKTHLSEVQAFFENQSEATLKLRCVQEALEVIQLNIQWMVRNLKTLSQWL
On to `O=c1ccc2cc(O)c(O)cc2o1`, for which the AC200 was 2120 nM.

`Cc1cc(=O)oc2cc(OCC(=O)N3CCN(C(C)c4ccccc4)CC3)c(Cl)cc12` (configuration not stated): the AC200 was 1980 nM.

Consider `CC(=O)N1[C@@H]2c3ccc(/C=C/c4ccccc4)c(=O)n3C[C@H]1[C@H](CO)[C@H]2C(=O)N(C)C`, for which the AC200 is 906 nM.

`COc1ccc(CNCc2c(O)c(Cl)cc3c(C)c(C)c(=O)oc23)c(OC)c1`: the AC200 was 493 nM.

In the case of `O=c1ccc2cc(O[C@@H]3O[C@@H](CO)[C@H](O)[C@@H](O)[C@@H]3O)c(O)cc2o1`, the AC200 is 363 nM.

`O=c1cc(CN2CCN(Cc3ccccc3)CC2)c2ccc(O)cc2o1`: the AC200 is 1470 nM.

Take `COc1cc2ccc(=O)oc2cc1O`: the AC200 is 348 nM.

Take `CCCCc1cc(=O)oc2cc(O)ccc12`: the AC200 is 1670 nM.

On to `CN1CCCC1CCNc1ccc2c(=O)c3ccccc3oc2c1` (configuration not stated), for which the AC200 is 555 nM.

Consider `O=c1cc(CN2CCOCC2)c2cc(Cl)c(O)cc2o1`, for which the AC200 was 1100 nM.

As to `CCNC(=O)[C@@H]1[C@@H](CO)[C@@H]2Cn3c(ccc(/C=C/c4ccccc4)c3=O)[C@H]1N2C(=O)C1CCCC1`, the AC200 was 824 nM.

`O=C(C[C@H]1CC[C@@H]2[C@H](COC[C@@H](O)CN2C(=O)Nc2cccc(Cl)c2)O1)N1CCCCC1`: the AC200 is > 11000 nM (inactive).

Take `COc1ccc(-c2cc3ccc(O)cc3oc2=O)cc1OC`: the AC200 is 983 nM.

For the compound `Cc1cc(=O)oc2cc(NS(=O)(=O)c3ccc(F)cc3)ccc12`, the AC200 is 998 nM.

Turning to `CCN(CC)c1ccc2c(C)c(Cl)c(=O)oc2c1`, the AC200 was 964 nM.

As for `Cc1cc(=O)oc2c(CN3CCN(C)CC3)c(O)c(Cl)cc12`, the AC200 was 634 nM.

On to `CC(=O)N1[C@@H]2c3ccc(/C=C/c4ccccc4)c(=O)n3C[C@H]1[C@H](CO)[C@H]2C(=O)N1CCOCC1`, for which the AC200 was 1100 nM.

For the compound `CCCc1cc(=O)oc2c(CN(CC)CC)c(O)c(Cl)cc12`, the AC200 is 638 nM.

Consider `COCC(=O)N1[C@@H]2c3ccc(/C=C/c4ccccc4)c(=O)n3C[C@H]1[C@H](CO)[C@H]2C(=O)N1CCOCC1`, for which the AC200 is 684 nM.

For the compound `Cc1c(O)ccc2c(CN3CCN(Cc4ccccc4)CC3)cc(=O)oc12`, the AC200 was > 2600 nM (inactive).

For the compound `Cc1ccc2nc3c(cc(C(=O)NCc4ccccc4)c(=N)n3CCCn3ccnc3)c(=O)n2c1`, the AC200 is 2010 nM.

`O=c1oc2c(CN3CCN(CCO)CC3)c(O)ccc2cc1-c1ccccn1`: the AC200 is 275 nM.

`CCCN1[C@@H]2Cn3c(ccc(/C=C/c4ccccc4)c3=O)[C@H]1[C@@H](C(=O)NCc1ccccn1)[C@@H]2CO`: the AC200 is 992 nM.

With `COc1ccc(C2=NN(c3ccc(C(=O)O)cc3)C(c3ccc(OC)c(OC)c3)C2)cc1` (configuration not stated), the AC200 was 824 nM.

Regarding `Cc1c(CC(=O)N2CCN(C(=O)C3COc4ccccc4O3)CC2)c(=O)oc2cc(O)c(Cl)cc12` (configuration not stated), the AC200 was 661 nM.

With `O=C(NCC1CC1)[C@H]1[C@H](CO)[C@H]2Cn3c(ccc(/C=C/c4ccccc4)c3=O)[C@@H]1N2C(=O)C1CC1`, the AC200 was 927 nM.

In the case of `N#Cc1c(N)n(CCNC(=O)c2ccccc2)c2nc3ccccc3nc12`, the AC200 is > 2600 nM (inactive).

On to `Cc1ccc(S(=O)(=O)c2cc3ccc(O)cc3oc2=O)cc1C`, for which the AC200 was 362 nM.

Turning to `O=c1ccc2cc(O[C@@H]3O[C@H](CO)[C@@H](O)[C@H](O)[C@H]3O)c(O)cc2o1`, the AC200 was 307 nM.

Consider `CCC(=O)N1[C@@H]2c3ccc(/C=C/c4ccccc4)c(=O)n3C[C@H]1[C@H](CO)[C@H]2C(=O)N(C)C`, for which the AC200 is 872 nM.

Turning to `O=c1oc2cc(O)ccc2cc1S(=O)(=O)c1ccccc1`, the AC200 was 351 nM.

The same assay, now with this note: purified IRAP, Leu-AMC cleavage fluorescence, 1 h; at 2.6 µM (top of the series).
As for `COc1cc2cc(C(=O)N3CCN(Cc4ccc5c(c4)OCO5)CC3)c(=O)oc2cc1OC`, the activation was 150% (inactive).

The assay is the same for the next values; noted with them: purified IRAP, Leu-AMC cleavage fluorescence, 1 h; at 5 µM (top of the series).
Take `CCCN(C)C[C@@H]1OCCCC[C@@H](C)Oc2ccc(NS(=O)(=O)c3ccc(C)cc3)cc2C(=O)N([C@@H](C)CO)C[C@@H]1C`: the activation is 0.889% (inactive).

The assay is the same for the next values; noted with them: purified IRAP, Leu-AMC cleavage fluorescence, 1 h; at 5.6 µM (top of the series).
Turning to `COc1ccc(S(=O)(=O)N(C)C[C@@H]2Oc3ncccc3C(=O)N([C@H](C)CO)C[C@@H]2C)cc1`, the activation was 9.5% (inactive).

Consider `Cc1ccc(-c2cc(C(=O)N3CCCC3)c3ccccc3n2)s1`, for which the activation is 152% (inactive).

The same assay, now with this note: purified IRAP, Leu-AMC cleavage fluorescence, 1 h; at 10 µM (top of the series).
As to `CCCN(C)C[C@@H]1OCCCC[C@@H](C)Oc2ccc(NS(=O)(=O)c3ccc(C)cc3)cc2C(=O)N([C@H](C)CO)C[C@@H]1C`, the activation is -8.1% (inactive).

Take `C[C@@H]1CCCCO[C@@H](CN(C)C)[C@H](C)CN([C@@H](C)CO)C(=O)c2cc(NC(=O)Nc3ccc(C(F)(F)F)cc3)ccc2O1`: the activation was -1.06% (inactive).

In the case of `Cc1noc(C)c1S(=O)(=O)Nc1ccc2c(c1)C(=O)N([C@H](C)CO)C[C@H](C)[C@H](CN(C)Cc1ccc3c(c1)OCO3)OCCCC[C@@H](C)O2`, the activation was -18.4% (inactive).

On to `CCCN(C)C[C@@H]1OCCCC[C@@H](C)Oc2ccc(NS(=O)(=O)c3c(C)noc3C)cc2C(=O)N([C@H](C)CO)C[C@@H]1C`, for which the activation is -22.5% (inactive).

Staying with this assay, now noted: purified IRAP, Leu-AMC cleavage fluorescence, 1 h; at 11 µM (top of the series).
For the compound `O=C(O)c1ccccc1NS(=O)(=O)c1cccc(-n2sc3ccccc3c2=O)c1`, the activation is -25.6% (inactive).

For the compound `COc1ccc(CN(C)C[C@@H]2OCCCC[C@@H](C)Oc3ccc(NS(=O)(=O)c4cccs4)cc3C(=O)N([C@H](C)CO)C[C@H]2C)cc1`, the activation is 3.48% (inactive).

`COc1ccc2c3c([nH]c2c1)[C@H](CO)N(Cc1cc(F)ccc1F)CC31CN(C)C1`: the activation was 1.85% (inactive).

As to `C[C@@H]1CCCCO[C@@H](CN(C)Cc2ccc3c(c2)OCO3)[C@@H](C)CN([C@H](C)CO)C(=O)c2cc(NS(=O)(=O)c3cccs3)ccc2O1`, the activation is -8.52% (inactive).

For `COc1ccc(CN(C)C[C@@H]2OCCCC[C@H](C)Oc3ccc(NS(=O)(=O)c4cccs4)cc3C(=O)N([C@H](C)CO)C[C@@H]2C)cc1`, the activation is -13.3% (inactive).

As for `O=C(C[C@H]1CC[C@H]2[C@@H](COC[C@@H](O)CN2C(=O)Nc2cccc(Cl)c2)O1)N1CCCCC1`, the activation was 16.9% (inactive).

On to `Cc1ccc(S(=O)(=O)Nc2ccc3c(c2)C(=O)N([C@@H](C)CO)C[C@H](C)[C@H](CN(C)C)OCCCC[C@@H](C)O3)cc1`, for which the activation was 8.57% (inactive).

Consider `C[C@H]1CN([C@@H](C)CO)C(=O)c2cccc(NC(=O)Nc3ccc(F)cc3)c2O[C@@H]1CN(C)C(=O)Nc1ccc2c(c1)OCO2`, for which the activation is 21.6% (inactive).

For `C[C@H](CO)N1C[C@H](C)[C@H](CN(C)Cc2ccc(C(=O)O)cc2)Oc2c(NC(=O)Nc3ccccc3)cccc2C1=O`, the activation was 24.2% (inactive).

As for `C[C@@H]1CCCCO[C@H](CN(C)Cc2ccccc2)[C@H](C)CN([C@H](C)CO)C(=O)c2cc(NS(=O)(=O)c3ccccc3)ccc2O1`, the activation was -9.37% (inactive).

With `C[C@@H]1CCCCO[C@@H](CN(C)CC2CCCCC2)[C@H](C)CN([C@@H](C)CO)C(=O)c2cc(NC(=O)Nc3ccccc3)ccc2O1`, the activation was -13.9% (inactive).

Turning to `C[C@H](CO)N1C[C@H](C)[C@@H](CN(C)CC2CC2)Oc2c(NC(=O)Nc3ccc(C(F)(F)F)cc3)cccc2C1=O`, the activation is -14.9% (inactive).

With `CCC(=O)N(C)C[C@@H]1Oc2ncc(C#Cc3ccncc3)cc2C(=O)N([C@@H](C)CO)C[C@@H]1C`, the activation was 2.82% (inactive).

Turning to `COc1ccc(CN(C)C[C@H]2OCCCC[C@@H](C)Oc3ccc(NS(=O)(=O)c4cccs4)cc3C(=O)N([C@H](C)CO)C[C@H]2C)cc1`, the activation is 10% (inactive).

Regarding `C[C@@H]1CCCCO[C@H](CN(C)Cc2ccc(C(=O)O)cc2)[C@H](C)CN([C@@H](C)CO)C(=O)c2cc(NC(=O)Nc3ccc(C(F)(F)F)cc3)ccc2O1`, the activation was 11.1% (inactive).

For `C[C@@H]1CCCCO[C@@H](CN(C)Cc2ccc(C(=O)O)cc2)[C@@H](C)CN([C@H](C)CO)C(=O)c2cc(NC(=O)Nc3cccc4ccccc34)ccc2O1`, the activation was -5.32% (inactive).

For `CO[C@@H]1CN(C)C(=O)c2ccc(NC(=O)Nc3cccc(Cl)c3)cc2OC[C@@H](C)NC[C@H]1C`, the activation was 15.1% (inactive).

As to `CCCNC(=O)C[C@@H]1CC[C@@H]2[C@H](COC[C@H](O)CN2C(=O)Nc2cccc(Cl)c2)O1`, the activation was 30.1% (inactive).

Consider `CCCNC(=O)C[C@H]1CC[C@@H]2[C@H](COC[C@H](O)CN2C(=O)Nc2cccc(Cl)c2)O1`, for which the activation was 24.9% (inactive).

As for `COC(=O)[C@H]1[C@H](CO)[C@H]2Cn3c(ccc(-c4ccncc4)c3=O)[C@H]2N1Cc1ccccc1F`, the activation was 19% (inactive).

In the case of `C[C@H](CO)N1C[C@H](C)[C@H](CN(C)CC2CCCCC2)Oc2c(NC(=O)Nc3ccc4c(c3)OCO4)cccc2C1=O`, the activation was -3.26% (inactive).

For `NC(=NCCc1c[nH]c2ccccc12)NS(=O)(=O)c1cc(F)ccc1F`, the activation is 20.9% (inactive).

Take `COc1ccc(NC(=O)Nc2cccc3c2O[C@H](CN(C)Cc2ccc(C(=O)O)cc2)[C@H](C)CN([C@H](C)CO)C3=O)cc1`: the activation is 8.21% (inactive).

Take `COc1ccc(CN(C)C[C@H]2OCCCC[C@@H](C)Oc3ccc(NS(=O)(=O)c4cccs4)cc3C(=O)N([C@@H](C)CO)C[C@H]2C)cc1`: the activation was 2.6% (inactive).

In the case of `COc1ccc(NC(=O)Nc2ccc3c(c2)C(=O)N([C@H](C)CO)C[C@@H](C)[C@@H](CN(C)Cc2ccc(C(=O)O)cc2)OCCCC[C@@H](C)O3)cc1`, the activation was -5.71% (inactive).

In the case of `C[C@H]1CN([C@@H](C)CO)C(=O)c2cccc(NC(=O)Nc3ccc(C(F)(F)F)cc3)c2O[C@@H]1CN(C)CC1CC1`, the activation is -18.4% (inactive).

Turning to `CCN(CCCl)c1cc(CN(C)C)cc(NC(=O)c2ccc(C(=O)Nc3cc(CN(C)C)cc(N(CC)CCCl)c3)cc2)c1`, the activation was -21% (inactive).

In the case of `CNC[C@H]1OCCCC[C@@H](C)Oc2ccc(NS(=O)(=O)c3ccc(C)cc3)cc2C(=O)N([C@@H](C)CO)C[C@H]1C`, the activation was -8.83% (inactive).
